The test has as its target T1, human cloned 5-HT6 receptors (Homo sapiens, UniProt P50406).
T1 construct: expressed in transfected cells; host or cells: HeLa cells
Description: 5-HT6 binding affinity, [3H]-LSD displacement. Particulars: membranes of Hela cells expressing human cloned 5-HT6 receptors; [3H]-LSD 3.0 nM; 120 minutes at room temperature. On the procedure: The affinity of test compounds for the serotonin 5-HT6 receptor was evaluated in the following manner. Cultured Hela cells expressing human cloned 5-HT6 receptors were harvested and centrifuged at low speed (1,000×g) for 10.0 minutes to remove the culture media. The harvested cells were suspended in half volume of fresh physiological phosphate buffered saline solution and recentrifuged at the same speed. This operation was repeated. The collected cells were then homogenized in ten volumes of 50 mM Tris.HCl (pH 7.4) and 0.5 mM EDTA. The homogenate was centrifuged at 40,000×g for 30.0 min and the precipitate was collected. The obtained pellet was resuspended in 10 volumes of Tris.HCl buffer and recentrifuged at the same speed. The final pellet was suspended in a small volume of Tris.HCl buffer and the tissue protein content was determined in aliquots of 10-25 μl volumes. […] The volume of the suspended cell membranes was adjusted to give a tissue protein concentration of 1.0 mg/ml of suspension. The prepared membrane suspension (10 times concentrated) was aliquoted in 1.0 ml volumes and stored at −70° C. until used in subsequent binding experiments.
The bound complex caught on the filter disk was allowed to air dry and the radioactivity is measured in a Packard TopCount® equipped with six photomultiplier detectors, after the addition of 40.0 μl Microscint®-20 scintillant to each shallow well. The unifilter plate was heat-sealed and counted in a PackardTopCount® with a tritium efficiency of 31.0%.
Specific binding to the 5-HT6 receptor was defined as the total radioactivity bound less the amount bound in the presence of 10.0 μM unlabeled methiothepin. Binding in the presence of varying concentrations of test compound was expressed as a percentage of specific binding in the absence of test compound. The results were plotted as log % bound versus log concentration of test compound. […] A linear regression line of data points was plotted, from which the IC50 value is determined and the Ki value is determined based upon the following equation: Ki=IC50/(1+L/KD) where L was the concentration of the radioactive ligand used and KD is the dissociation constant of the ligand for the receptor, both expressed in nM.

Where a name gives a salt, the structure may show the parent alone. Some results are limits rather than exact numbers.

Broadly, the Ki is a measure of affinity in units of concentration, obtained from inhibition or displacement. A low value points to higher affinity.

T1 sequence (P50406 whole entry): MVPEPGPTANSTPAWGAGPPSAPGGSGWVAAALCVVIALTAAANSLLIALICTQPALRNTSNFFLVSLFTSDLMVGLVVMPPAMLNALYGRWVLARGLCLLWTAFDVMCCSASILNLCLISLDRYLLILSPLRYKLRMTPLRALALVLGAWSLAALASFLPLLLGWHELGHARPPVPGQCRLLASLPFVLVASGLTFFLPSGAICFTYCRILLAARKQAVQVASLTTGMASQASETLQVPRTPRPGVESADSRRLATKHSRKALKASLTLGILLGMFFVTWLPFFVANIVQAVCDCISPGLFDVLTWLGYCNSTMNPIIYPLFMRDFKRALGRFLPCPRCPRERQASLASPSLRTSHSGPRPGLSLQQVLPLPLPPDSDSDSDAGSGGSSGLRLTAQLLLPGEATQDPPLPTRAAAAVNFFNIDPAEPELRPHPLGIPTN

The molecule `CCNCCOc1ccc2[nH]nc(S(=O)(=O)c3ccccc3)c2c1` [Example 4, [2-(3-Benzenesulfonyl-1H-indazol-5-yloxy)-ethyl]-ethyl-amine] had a Ki of 0.01 to 10 nM.

Turning to `CC(C)NCCCc1ccc2[nH]nc(S(=O)(=O)c3ccccc3)c2c1` [Example 179, N-Isopropyl-N-{3-[3-(phenylsulfonyl)-1H-indazol-5-yl]propyl}amine trifluoroacetate], the Ki was over 45 nM. In turn, `CN(C)CCCc1ccc2[nH]nc(S(=O)(=O)c3ccccc3)c2c1` [Example 177, N,N-Dimethyl-N-{3-[3-(phenylsulfonyl)-1H-indazol-5-yl]propyl}amine trifluoroacetate] returned a Ki of 11 to 25 nM. With `COc1cc(OCCN2CCCCC2)c2[nH]nc(S(=O)(=O)c3cccc4ccccc34)c2c1` [Example 126], the Ki fell in the range of 0.01 to 10 nM. In the case of `O=S(=O)(c1cccc2ccccc12)c1n[nH]c2ccc(CN3CCNCC3)cc12` [Example 195, 3-(1-Naphthylsulfonyl)-5-(piperazin-1-ylmethyl)-1H-indazole], the Ki is 0.01 to 10 nM.

With `CC1CN(Cc2ccc3[nH]nc(S(=O)(=O)c4cccc5ccccc45)c3c2)CC(C)N1` (centres unmarked) [Example 198], the Ki is 0.01 to 10 nM. To `CCNCCOc1cccc2c(S(=O)(=O)c3ccccc3)n[nH]c12` [Example 89] belongs 0.01 to 10 nM; to `CC(C)NCCOc1ccc2c(c1)c(S(=O)(=O)c1cccc3ccccc13)nn2Cc1cccc(Cl)c1` [Example 57, {2-[1-(3-Chloro-benzyl)-3-(naphthalene-1-sulfonyl)-1H-indazol-5-yloxy]-ethyl}-isopropyl-amine], 36 to 45 nM; to `CN(C)CCCOc1cccc2c(S(=O)(=O)c3cccc4ccccc34)n[nH]c12` [Example 136], 36 to 45 nM. To `COc1cc(OCCN2CCCCC2)c2c(c1)c(S(=O)(=O)c1cccc3ccccc13)nn2Cc1cccc(Cl)c1` [Example 122] belongs 0.01 to 10 nM; to `COc1cc(OCCN2CCCC2)c2[nH]nc(S(=O)(=O)c3cccc4ccccc34)c2c1` [Example 127], 11 to 25 nM.

On to `CCN(C)CCCOc1ccc2[nH]nc(S(=O)(=O)c3cccc4ccccc34)c2c1` [Example 17, Ethyl-methyl-{3-[3-(naphthalene-1-sulfonyl)-1H-indazol-5-yloxy]-propyl}-amine], for which the Ki was in the range of 0.01 to 10 nM. In the case of `CCNCCOc1cccc2c(S(=O)(=O)c3ccccc3)nn(C)c12` [Example 102], the Ki lay in the range of 26 to 35 nM. Under `CCNCCOc1ccc2c(c1)c(S(=O)(=O)c1cccc3ccccc13)nn2C` [Example 44, Ethyl-{2-[1-methyl-3-(naphthalene-1-sulfonyl)-1H-indazol-5-yloxy]-ethyl}-amine] stands 0.01 to 10 nM; under `CN(C)CCOc1ccc2[nH]nc(S(=O)(=O)c3cccc4ccccc34)c2c1` [Example 27, Dimethyl-{2-[3-(naphthalene-1-sulfonyl)-1H-indazol-5-yloxy]-ethyl}-amine], 0.01 to 10 nM; under `CCN(C)CCOc1ccc2c(c1)c(S(=O)(=O)c1cccc3ccccc13)nn2Cc1ccccc1` [Example 47, {2-[1-Benzyl-3-(naphthalene-1-sulfonyl)-1H-indazol-5-yloxy]-ethyl}-ethyl-methyl-amine], 26 to 35 nM.

For the molecule `O=S(=O)(c1cccc2ccccc12)c1nn(Cc2cccc(Cl)c2)c2ccc(OCCN3CCCC3)cc12` [Example 58, 1-(3-Chloro-benzyl)-3-(naphthalene-1-sulfonyl)-5-(2-pyrrolidin-1-yl-ethoxy)-1H-indazole], the Ki was 26 to 35 nM.

`NCCOc1cccc2[nH]nc(S(=O)(=O)c3cccc4ccccc34)c12` [Example 141] came in with a Ki of 11 to 25 nM. To `CNCCOc1cc(OC)cc2c(S(=O)(=O)c3cccc4ccccc34)nn(Cc3cccc(Cl)c3)c12` [Example 119] belongs over 45 nM; to `CCN(CC)CCOc1cccc2c(S(=O)(=O)c3ccccc3)n[nH]c12` [Example 90], 0.01 to 10 nM; to `O=S(=O)(c1cccc2ccccc12)c1n[nH]c2ccc(OCCCCN3CCCC3)cc12` [Example 67], 0.01 to 10 nM. `O=S(=O)(c1cccc2ccccc12)c1nn(Cc2cccc(Cl)c2)c2c(OCCN3CCCC3)cc(F)cc12` [Example 112] registered an inhibition constant (Ki) of over 45 nM.

`CNCCOc1ccc2c(c1)c(S(=O)(=O)c1cccc3ccccc13)nn2Cc1cccc(Cl)c1` [Example 59, {2-[1-(3-Chloro-benzyl)-3-(naphthalene-1-sulfonyl)-1H-indazol-5-yloxy]-ethyl}-methyl-amine] had a Ki of over 45 nM. For the molecule `O=C(CCN1CCCCC1)Nc1cccc2c(S(=O)(=O)c3cccc4ccccc34)n[nH]c12` [Example 163, N-[3-(Naphthalene-1-sulfonyl)-1H-indazol-7-yl]-3-piperidin-1-yl-propionamide hydrochloride], the Ki lay within 11 to 25 nM.

Take `CCN(CC)CCCOc1cccc2c(S(=O)(=O)c3cccc4ccccc34)n[nH]c12` [Example 137]: the Ki is 26 to 35 nM.

For `NCCOc1ccc2c(S(=O)(=O)c3cccc4ccccc34)n[nH]c2c1` [Example 146, 2-{[3-(1-Naphtylsulfonyl)-1H-indazol-6-yl]oxy}ethanamine], the Ki is 11 to 25 nM.

As to `CCCN(C)CCCCOc1ccc2[nH]nc(S(=O)(=O)c3cccc4ccccc34)c2c1` [Example 65], the Ki fell in the range of 0.01 to 10 nM. Under `CCCCNCCOc1cccc2c(S(=O)(=O)c3ccccc3)nn(Cc3cccc(Cl)c3)c12` [Example 85] stands over 45 nM. To `CCN(C)CCOc1ccc2[nH]nc(S(=O)(=O)c3ccccc3)c2c1` [Example 2, [2-(3-Benzenesulfonyl-1H-indazol-5-yloxy)-ethyl]-ethyl-methyl-amine] belongs over 45 nM; to `CCNCCOc1ccc2c(c1)c(S(=O)(=O)c1cccc3ccccc13)nn2Cc1ccccc1` [Example 53, {2-[1-Benzyl-3-(naphthalene-1-sulfonyl)-1H-indazol-5-yloxy]-ethyl}-ethyl-amine], 11 to 25 nM.

On to `NCCC(=O)Nc1ccc2c(S(=O)(=O)c3cccc4ccccc34)n[nH]c2c1` [Example 165, 3-Amino-N-[3-(naphthalene-1-sulfonyl)-1H-indazol-6-yl]-propionamide hydrochloride], for which the Ki is 11 to 25 nM. Under `NCCOc1cc(F)cc2c(S(=O)(=O)c3ccccc3)n[nH]c12` [Example 140] stands 0.01 to 10 nM; under `O=S(=O)(c1cccc2ccccc12)c1n[nH]c2ccc(OCCN3CCOCC3)cc12` [Example 39, 5-(2-Morpholin-4-yl-ethoxy)-3-(naphthalene-1-sulfonyl)-1H-indazole], 11 to 25 nM; under `CN(C)CCOc1ccc2c(c1)c(S(=O)(=O)c1cccc3ccccc13)nn2C` [Example 41, Dimethyl-{2-[1-methyl-3-(naphthalene-1-sulfonyl)-1H-indazol-5-yloxy]-ethyl}-amine], 0.01 to 10 nM.

In the case of `COc1cc(OCCN(C)C)c2[nH]nc(S(=O)(=O)c3cccc4ccccc34)c2c1` [Example 125], the Ki is 11 to 25 nM. To `NCCC(=O)Nc1ccc2[nH]nc(S(=O)(=O)c3cccc4ccccc34)c2c1` [Example 158, 3-Amino-N-[3-(naphthalene-1-sulfonyl)-1H-indazol-5-yl]-propionamide hydrochloride] belongs 0.01 to 10 nM; to `Cn1nc(S(=O)(=O)c2ccccc2)c2cccc(OCCN3CCCC3)c21` [Example 104], 26 to 35 nM. Under `O=S(=O)(c1cccc2ccccc12)c1nn(Cc2cccc(Cl)c2)c2c(OCCCN3CCCCC3)cccc12` [Example 132] stands 26 to 35 nM; under `CN(C)CCN(C)Cc1ccc2[nH]nc(S(=O)(=O)c3cccc4ccccc34)c2c1` [Example 153, N,N, N′-Trimethyl-N′-{[3-(1-naphthylsulfonyl)-1H-indazol-5-yl]methyl}ethane-1,2-diamine], 11 to 25 nM. Turning to `CCNCCOc1cccc2c(S(=O)(=O)c3ccccc3)nn(Cc3cccc(Cl)c3)c12` [Example 83], the Ki is 26 to 35 nM. The molecule `N[C@@H]1CCN(Cc2ccc3[nH]nc(S(=O)(=O)c4cccc5ccccc45)c3c2)C1` [Example 201] returned a Ki of 0.01 to 10 nM. `CNCCOc1ccc2[nH]nc(S(=O)(=O)c3cccc4ccccc34)c2c1` [Example 31, Methyl-{2-[3-(naphthalene-1-sulfonyl)-1H-indazol-5-yloxy]-ethyl}-amine]: the Ki lay within 0.01 to 10 nM. For `CCN(C)CCOc1ccc2c(c1)c(S(=O)(=O)c1cccc3ccccc13)nn2C` [Example 42, Ethyl-methyl-{2-[1-methyl-3-(naphthalene-1-sulfonyl)-1H-indazol-5-yloxy]-ethyl}-amine], the Ki lay within 0.01 to 10 nM. In turn, `CNCCOc1cc(F)cc2c(S(=O)(=O)c3cccc4ccccc34)n[nH]c12` [Example 113] yielded a Ki of 0.01 to 10 nM.

Values taken from patent US7723329B2, “Substituted-3-sulfonylindazole derivatives as 5-hydroxytryptamine-6 ligands” (Wyeth LLC, priority 2005, dated 2010).
